Experimental data as given in the NIST ThermoML archive (doi:10.1016/j.jct.2015.10.017).
Numbers after ± are expanded uncertainties.

Columns and labels:
[1] = mn = molality of the nth substance listed, in mol/kg; details: 100 kPa, Liquid; for viscosity: Falling or rolling sphere viscometry; for speed of sound: Frequency=3 MHz, Sing-around technique in a fixed-path interferometer; for mass density: Vibrating tube method
[2] = 100 kPa, Liquid, Falling or rolling sphere viscometry

`CC(=O)NCC(=O)O` [N-acetylglycine] + O gave a viscosity ([1]; 288.15 K, m1 = 0.05) of 1.091 ± 0.22 mPa·s, a viscosity ([1]; 288.15 K, m1 = 0.1) of 1.151 ± 0.23 mPa·s and a viscosity ([1]; 288.15 K, m1 = 0.2) of 1.187 ± 0.24 mPa·s. For the same compound, the speed of sound ([1]; 288.15 K, m1 = 0.05) was 1468.9 ± 10 m/s, the speed of sound ([1]; 288.15 K, m1 = 0.1) was 1472.1 ± 10 m/s and the speed of sound ([1]; 288.15 K, m1 = 0.2) was 1476.4 ± 10 m/s. The mass density ([1]; 288.15 K, m1 = 0.05) was 1001.32 ± 10 kg/m3, the mass density ([1]; 288.15 K, m1 = 0.1) was 1002.84 ± 10 kg/m3 and the mass density ([1]; 288.15 K, m1 = 0.2) was 1005.54 ± 10 kg/m3. It also gave a viscosity ([1]; 293.15 K, m1 = 0.05) of 0.9664 ± 0.19 mPa·s, a viscosity ([1]; 293.15 K, m1 = 0.1) of 1.019 ± 0.2 mPa·s and a viscosity ([1]; 293.15 K, m1 = 0.2) of 1.048 ± 0.21 mPa·s. It also gave a speed of sound ([1]; 293.15 K, m1 = 0.05) of 1484.8 ± 10 m/s, a speed of sound ([1]; 293.15 K, m1 = 0.1) of 1486.7 ± 10 m/s and a speed of sound ([1]; 293.15 K, m1 = 0.2) of 1491.2 ± 10 m/s. It also gave a mass density ([1]; 293.15 K, m1 = 0.05) of 1000.04 ± 10 kg/m3, a mass density ([1]; 293.15 K, m1 = 0.1) of 1001.89 ± 10 kg/m3 and a mass density ([1]; 293.15 K, m1 = 0.2) of 1004.84 ± 10 kg/m3. The viscosity ([1]; 298.15 K, m1 = 0.05) was 0.863 ± 0.17 mPa·s, the viscosity ([1]; 298.15 K, m1 = 0.1) was 0.9071 ± 0.18 mPa·s and the viscosity ([1]; 298.15 K, m1 = 0.2) was 0.9357 ± 0.19 mPa·s. For the same compound, the speed of sound ([1]; 298.15 K, m1 = 0.05) was 1499.6 ± 10 m/s, the speed of sound ([1]; 298.15 K, m1 = 0.1) was 1501.3 ± 10 m/s and the speed of sound ([1]; 298.15 K, m1 = 0.2) was 1504.5 ± 10 m/s. The mass density ([1]; 298.15 K, m1 = 0.05) was 998.801 ± 10 kg/m3, the mass density ([1]; 298.15 K, m1 = 0.1) was 1000.37 ± 10 kg/m3 and the mass density ([1]; 298.15 K, m1 = 0.2) was 1003.79 ± 10 kg/m3. For the same compound, the viscosity ([1]; 303.15 K, m1 = 0.05) was 0.8379 ± 0.17 mPa·s, the viscosity ([1]; 303.15 K, m1 = 0.1) was 0.8579 ± 0.17 mPa·s and the viscosity ([1]; 303.15 K, m1 = 0.2) was 0.8904 ± 0.18 mPa·s. The speed of sound ([1]; 303.15 K, m1 = 0.05) was 1514 ± 10 m/s, the speed of sound ([1]; 303.15 K, m1 = 0.1) was 1516.3 ± 10 m/s and the speed of sound ([1]; 303.15 K, m1 = 0.2) was 1519 ± 10 m/s. It also gave a mass density ([1]; 303.15 K, m1 = 0.05) of 997.363 ± 10 kg/m3, a mass density ([1]; 303.15 K, m1 = 0.1) of 998.824 ± 10 kg/m3 and a mass density ([1]; 303.15 K, m1 = 0.2) of 1002.6 ± 10 kg/m3. The viscosity ([1]; 308.15 K, m1 = 0.05) was 0.7411 ± 0.15 mPa·s, the viscosity ([1]; 308.15 K, m1 = 0.1) was 0.7624 ± 0.15 mPa·s and the viscosity ([1]; 308.15 K, m1 = 0.2) was 0.7856 ± 0.16 mPa·s. It also gave a speed of sound ([1]; 308.15 K, m1 = 0.05) of 1521.7 ± 10 m/s, a speed of sound ([1]; 308.15 K, m1 = 0.1) of 1524.7 ± 10 m/s and a speed of sound ([1]; 308.15 K, m1 = 0.2) of 1527.2 ± 10 m/s. The mass density ([1]; 308.15 K, m1 = 0.05) was 995.711 ± 10 kg/m3, the mass density ([1]; 308.15 K, m1 = 0.1) was 997.285 ± 10 kg/m3 and the mass density ([1]; 308.15 K, m1 = 0.2) was 1001.3 ± 10 kg/m3.

In the case of `O` [water], the viscosity ([2]; 288.15 K) is reported as 1.043 ± 0.21 mPa·s, the viscosity ([2]; 293.15 K) is reported as 0.9312 ± 0.19 mPa·s and the viscosity ([2]; 298.15 K) is reported as 0.8319 ± 0.17 mPa·s. It also gave a viscosity ([2]; 303.15 K) of 0.7981 ± 0.16 mPa·s and a viscosity ([2]; 308.15 K) of 0.7202 ± 0.14 mPa·s.

Compound `O` [water] + CC(=O)NCC(=O)O has a viscosity ([1]; 288.15 K, m2 = 0) of 1.043 ± 0.21 mPa·s, a viscosity ([1]; 293.15 K, m2 = 0) of 0.9312 ± 0.19 mPa·s and a viscosity ([1]; 298.15 K, m2 = 0) of 0.8319 ± 0.17 mPa·s. For the same compound, the viscosity ([1]; 303.15 K, m2 = 0) was 0.7981 ± 0.16 mPa·s and the viscosity ([1]; 308.15 K, m2 = 0) was 0.7202 ± 0.14 mPa·s.

Compound `O` [water] + O=P([O-])([O-])O.[K+].[K+] has a viscosity ([1]; 288.15 K, m2 = 0) of 1.043 ± 0.21 mPa·s, a viscosity ([1]; 293.15 K, m2 = 0) of 0.9312 ± 0.19 mPa·s and a viscosity ([1]; 298.15 K, m2 = 0) of 0.8319 ± 0.17 mPa·s. The viscosity ([1]; 303.15 K, m2 = 0) was 0.7981 ± 0.16 mPa·s and the viscosity ([1]; 308.15 K, m2 = 0) was 0.7202 ± 0.14 mPa·s.

With `O` [water] + O=P([O-])([O-])O.[Na+].[Na+] the viscosity ([1]; 288.15 K, m2 = 0) was 1.043 ± 0.21 mPa·s, the viscosity ([1]; 293.15 K, m2 = 0) was 0.9312 ± 0.19 mPa·s and the viscosity ([1]; 298.15 K, m2 = 0) was 0.8319 ± 0.17 mPa·s. The viscosity ([1]; 303.15 K, m2 = 0) was 0.7981 ± 0.16 mPa·s and the viscosity ([1]; 308.15 K, m2 = 0) was 0.7202 ± 0.14 mPa·s.
